Assay results reported in patent US12290596B2, “Compositions and methods for the treatment of opioid overdose” (priority 2021, dated 2025).

Assay: Three-treatment crossover pharmacokinetics of IN nalmefene, three dosing regimens (Example 13)
Settings: human, plasma, […]

C=C1CC[C@@]2(O)[C@H]3Cc4ccc(O)c5c4[C@@]2(CCN3CC2CC2)[C@H]1O5 [Nalmefene, 17-cyclopropylmethyl-4,5α-epoxy-6-methylenemorphinan-3,14-diol]
concentration at 0 h (other: intranasal (IN spray), 6 mg, Mean, Time 0.00, T3: 6 mg nalmefene HCl IN, two 0.1 mL sprays in one nostril): 0 ng/mL | concentration at 2.5 min (other: intranasal (IN spray), 6 mg, Mean, Time 0.0416, T3: 6 mg nalmefene HCl IN, two 0.1 mL sprays in one nostril): 1.35 ng/mL | concentration at […] (other: intranasal (IN spray), 6 mg, Mean, Time 0.0833, T3: 6 mg nalmefene HCl IN, two 0.1 mL sprays in one nostril): 5.05 ng/mL | concentration at […] (other: intranasal (IN spray), 6 mg, Mean, Time 0.166, T3: 6 mg nalmefene HCl IN, two 0.1 mL sprays in one nostril): 14.1 ng/mL | concentration at […] (other: intranasal (IN spray), 6 mg, Mean, Time 0.250, T3: 6 mg nalmefene HCl IN, two 0.1 mL sprays in one nostril): 16.9 ng/mL | concentration at […] (other: intranasal (IN spray), 6 mg, Mean, Time 0.333, T3: 6 mg nalmefene HCl IN, two 0.1 mL sprays in one nostril): 14.6 ng/mL | concentration at […] (other: intranasal (IN spray), 6 mg, Mean, Time 0.750, T3: 6 mg nalmefene HCl IN, two 0.1 mL sprays in one nostril): 9.92 ng/mL | concentration at 1 h (other: intranasal (IN spray), 6 mg, Mean, Time 1.00, T3: 6 mg nalmefene HCl IN, two 0.1 mL sprays in one nostril): 9.59 ng/mL | concentration at 2 h (other: intranasal (IN spray), 6 mg, Mean, Time 2.00, T3: 6 mg nalmefene HCl IN, two 0.1 mL sprays in one nostril): 8.86 ng/mL | concentration at 3 h (other: intranasal (IN spray), 6 mg, Mean, Time 3.00, T3: 6 mg nalmefene HCl IN, two 0.1 mL sprays in one nostril): 6.9 ng/mL | concentration at 4 h (other: intranasal (IN spray), 6 mg, Mean, Time 4.00, T3: 6 mg nalmefene HCl IN, two 0.1 mL sprays in one nostril): 5.37 ng/mL | concentration at 6 h (other: intranasal (IN spray), 6 mg, Mean, Time 6.00, T3: 6 mg nalmefene HCl IN, two 0.1 mL sprays in one nostril): 3.69 ng/mL | concentration at 8 h (other: intranasal (IN spray), 6 mg, Mean, Time 8.00, T3: 6 mg nalmefene HCl IN, two 0.1 mL sprays in one nostril): 2.69 ng/mL | concentration at 12 h (other: intranasal (IN spray), 6 mg, Mean, Time 12.0, T3: 6 mg nalmefene HCl IN, two 0.1 mL sprays in one nostril): 1.93 ng/mL | concentration at 18 h (other: intranasal (IN spray), 6 mg, Mean, Time 18.0, T3: 6 mg nalmefene HCl IN, two 0.1 mL sprays in one nostril): 1.11 ng/mL | concentration at 24 h (other: intranasal (IN spray), 6 mg, Mean, Time 24.0, T3: 6 mg nalmefene HCl IN, two 0.1 mL sprays in one nostril): 0.792 ng/mL | concentration at 48 h (other: intranasal (IN spray), 6 mg, Mean, Time 48.0, T3: 6 mg nalmefene HCl IN, two 0.1 mL sprays in one nostril): 0.182 ng/mL | concentration at 0 h (other: intranasal (IN spray), 6 mg, Median, Time 0.00, T3: 6 mg nalmefene HCl IN, two 0.1 mL sprays in one nostril): 0 ng/mL | concentration at 2.5 min (other: intranasal (IN spray), 6 mg, Median, Time 0.0416, T3: 6 mg nalmefene HCl IN, two 0.1 mL sprays in one nostril): 0.746 ng/mL | concentration at […] (other: intranasal (IN spray), 6 mg, Median, Time 0.0833, T3: 6 mg nalmefene HCl IN, two 0.1 mL sprays in one nostril): 2.58 ng/mL | concentration at […] (other: intranasal (IN spray), 6 mg, Median, Time 0.125, T3: 6 mg nalmefene HCl IN, two 0.1 mL sprays in one nostril): 4.96 ng/mL | concentration at […] (other: intranasal (IN spray), 6 mg, Median, Time 0.166, T3: 6 mg nalmefene HCl IN, two 0.1 mL sprays in one nostril): 8.55 ng/mL | concentration at […] (other: intranasal (IN spray), 6 mg, Median, Time 0.250, T3: 6 mg nalmefene HCl IN, two 0.1 mL sprays in one nostril): 12.8 ng/mL | concentration at […] (other: intranasal (IN spray), 6 mg, Median, Time 0.750, T3: 6 mg nalmefene HCl IN, two 0.1 mL sprays in one nostril): 9.69 ng/mL | concentration at 1 h (other: intranasal (IN spray), 6 mg, Median, Time 1.00, T3: 6 mg nalmefene HCl IN, two 0.1 mL sprays in one nostril): 8.88 ng/mL | concentration at 2 h (other: intranasal (IN spray), 6 mg, Median, Time 2.00, T3: 6 mg nalmefene HCl IN, two 0.1 mL sprays in one nostril): 8.6 ng/mL | concentration at 3 h (other: intranasal (IN spray), 6 mg, Median, Time 3.00, T3: 6 mg nalmefene HCl IN, two 0.1 mL sprays in one nostril): 6.35 ng/mL | concentration at 4 h (other: intranasal (IN spray), 6 mg, Median, Time 4.00, T3: 6 mg nalmefene HCl IN, two 0.1 mL sprays in one nostril): 4.89 ng/mL | concentration at 6 h (other: intranasal (IN spray), 6 mg, Median, Time 6.00, T3: 6 mg nalmefene HCl IN, two 0.1 mL sprays in one nostril): 3.51 ng/mL | concentration at 8 h (other: intranasal (IN spray), 6 mg, Median, Time 8.00, T3: 6 mg nalmefene HCl IN, two 0.1 mL sprays in one nostril): 2.46 ng/mL | concentration at 12 h (other: intranasal (IN spray), 6 mg, Median, Time 12.0, T3: 6 mg nalmefene HCl IN, two 0.1 mL sprays in one nostril): 1.82 ng/mL | concentration at 18 h (other: intranasal (IN spray), 6 mg, Median, Time 18.0, T3: 6 mg nalmefene HCl IN, two 0.1 mL sprays in one nostril): 1.12 ng/mL | concentration at 24 h (other: intranasal (IN spray), 6 mg, Median, Time 24.0, T3: 6 mg nalmefene HCl IN, two 0.1 mL sprays in one nostril): 0.729 ng/mL | concentration at 48 h (other: intranasal (IN spray), 6 mg, Median, Time 48.0, T3: 6 mg nalmefene HCl IN, two 0.1 mL sprays in one nostril): 0.176 ng/mL | concentration at 0 h (other: intranasal (IN) spray, 3 mg, Max, T1 (3 mg IN, one spray in one nostril), time 0.00): 0 ng/mL | concentration at 2.5 min (other: intranasal (IN) spray, 3 mg, Max, T1 (3 mg IN, one spray in one nostril), time 0.0416): 0.766 ng/mL | concentration at […] (other: intranasal (IN) spray, 3 mg, Max, T1 (3 mg IN, one spray in one nostril), time 0.125): 16.9 ng/mL | concentration at […] (other: intranasal (IN) spray, 3 mg, Max, T1 (3 mg IN, one spray in one nostril), time 0.166): 20.4 ng/mL | concentration at […] (other: intranasal (IN) spray, 3 mg, Max, T1 (3 mg IN, one spray in one nostril), time 0.250): 22.1 ng/mL | concentration at […] (other: intranasal (IN) spray, 3 mg, Max, T1 (3 mg IN, one spray in one nostril), time 0.333): 20.2 ng/mL | concentration at 1 h (other: intranasal (IN) spray, 3 mg, Max, T1 (3 mg IN, one spray in one nostril), time 1.00): 9.54 ng/mL | concentration at 2 h (other: intranasal (IN) spray, 3 mg, Max, T1 (3 mg IN, one spray in one nostril), time 2.00): 7.64 ng/mL | concentration at 3 h (other: intranasal (IN) spray, 3 mg, Mean, T1 (3 mg IN, one spray in one nostril), time 3.00): 3.7 ng/mL | concentration at 4 h (other: intranasal (IN) spray, 3 mg, Mean, T1 (3 mg IN, one spray in one nostril), time 4.00): 2.99 ng/mL | concentration at 6 h (other: intranasal (IN) spray, 3 mg, Mean, T1 (3 mg IN, one spray in one nostril), time 6.00): 2.06 ng/mL | concentration at 8 h (other: intranasal (IN) spray, 3 mg, Mean, T1 (3 mg IN, one spray in one nostril), time 8.00): 1.44 ng/mL | concentration at 12 h (other: intranasal (IN) spray, 3 mg, Mean, T1 (3 mg IN, one spray in one nostril), time 12.0): 0.992 ng/mL | concentration at 18 h (other: intranasal (IN) spray, 3 mg, Mean, T1 (3 mg IN, one spray in one nostril), time 18.0): 0.591 ng/mL | concentration at 24 h (other: intranasal (IN) spray, 3 mg, Mean, T1 (3 mg IN, one spray in one nostril), time 24.0): 0.412 ng/mL | concentration at 48 h (other: intranasal (IN) spray, 3 mg, Mean, T1 (3 mg IN, one spray in one nostril), time 48.0): 0.0942 ng/mL | concentration at 2.5 min (other: intranasal (IN) spray, 3 mg, Median, T1 (3 mg IN, one spray in one nostril), time 0.0416): 0.362 ng/mL | concentration at […] (other: intranasal (IN) spray, 3 mg, Median, T1 (3 mg IN, one spray in one nostril), time 0.0833): 1.29 ng/mL | concentration at […] (other: intranasal (IN) spray, 3 mg, Median, T1 (3 mg IN, one spray in one nostril), time 0.125): 3.65 ng/mL | concentration at […] (other: intranasal (IN) spray, 3 mg, Median, T1 (3 mg IN, one spray in one nostril), time 0.166): 6.28 ng/mL | concentration at […] (other: intranasal (IN) spray, 3 mg, Median, T1 (3 mg IN, one spray in one nostril), time 0.250): 8.04 ng/mL | concentration at […] (other: intranasal (IN) spray, 3 mg, Median, T1 (3 mg IN, one spray in one nostril), time 0.333): 8.07 ng/mL | concentration at […] (other: intranasal (IN) spray, 3 mg, Median, T1 (3 mg IN, one spray in one nostril), time 0.750): 5.85 ng/mL | concentration at 2 h (other: intranasal (IN) spray, 3 mg, Median, T1 (3 mg IN, one spray in one nostril), time 2.00): 4.62 ng/mL | concentration at 3 h (other: intranasal (IN) spray, 3 mg, Min, T1 (3 mg IN, one spray in one nostril), time 3.00): 2.16 ng/mL | concentration at 4 h (other: intranasal (IN) spray, 3 mg, Min, T1 (3 mg IN, one spray in one nostril), time 4.00): 1.97 ng/mL | concentration at 0 h (other: intranasal, 3 mg, Mean, T1 (3 mg IN, one spray in one nostril), time 0.00): 0 ng/mL | concentration at 2.5 min (other: intranasal, 3 mg, Mean, T1 (3 mg IN, one spray in one nostril), time 0.0416): 0.353 ng/mL | concentration at […] (other: intranasal, 3 mg, Mean, T1 (3 mg IN, one spray in one nostril), time 0.0833): 2.38 ng/mL | concentration at […] (other: intranasal, 3 mg, Mean, T1 (3 mg IN, one spray in one nostril), time 0.125): 5.1 ng/mL | concentration at […] (other: intranasal, 3 mg, Mean, T1 (3 mg IN, one spray in one nostril), time 0.166): 7.78 ng/mL | concentration at […] (other: intranasal, 3 mg, Mean, T1 (3 mg IN, one spray in one nostril), time 0.250): 9.17 ng/mL | concentration at […] (other: intranasal, 3 mg, Mean, T1 (3 mg IN, one spray in one nostril), time 0.333): 8.79 ng/mL | concentration at […] (other: intranasal, 3 mg, Mean, T1 (3 mg IN, one spray in one nostril), time 0.750): 5.99 ng/mL | concentration at 1 h (other: intranasal, 3 mg, Mean, T1 (3 mg IN, one spray in one nostril), time 1.00): 5.47 ng/mL | concentration at 2 h (other: intranasal, 3 mg, Mean, T1 (3 mg IN, one spray in one nostril), time 2.00): 4.99 ng/mL | concentration at 0 h (other: intranasal, 3 mg, Median, T1 (3 mg IN, one spray in one nostril), time 0.00): 0 ng/mL | concentration at 1 h (other: intranasal, 3 mg, Median, T1 (3 mg IN, one spray in one nostril), time 1.00): 5.11 ng/mL | concentration at 0 h (other: intranasal, 3 mg, Min, T1 (3 mg IN, one spray in one nostril), time 0.00): 0 ng/mL | concentration at 2.5 min (other: intranasal, 3 mg, Min, T1 (3 mg IN, one spray in one nostril), time 0.0416): 0 ng/mL | concentration at […] (other: intranasal, 3 mg, Min, T1 (3 mg IN, one spray in one nostril), time 0.0833): 0.319 ng/mL | concentration at […] (other: intranasal, 3 mg, Min, T1 (3 mg IN, one spray in one nostril), time 0.125): 0.642 ng/mL | concentration at […] (other: intranasal, 3 mg, Min, T1 (3 mg IN, one spray in one nostril), time 0.166): 1.09 ng/mL | concentration at […] (other: intranasal, 3 mg, Min, T1 (3 mg IN, one spray in one nostril), time 0.250): 1.88 ng/mL | concentration at […] (other: intranasal, 3 mg, Min, T1 (3 mg IN, one spray in one nostril), time 0.333): 1.97 ng/mL | concentration at […] (other: intranasal, 3 mg, Min, T1 (3 mg IN, one spray in one nostril), time 0.750): 2.52 ng/mL | concentration at 2 h (other: intranasal, 3 mg, Min, T1 (3 mg IN, one spray in one nostril), time 2.00): 3.28 ng/mL | concentration at 0 h (other: intranasal, 6 mg, individual subject, Time 0.00, T3: 6 mg nalmefene HCl IN, two 0.1 mL sprays in one nostril): 0 ng/mL
